Results on 16 molecules are retold here after patent publication US10611731B2, “5-methyl-6-phenyl-4,5-dihydro-2H-pyridazin-3-one derivative” (OTSUKA PHARMACEUTICAL CO., LTD., priority 2016, dated 2020).

This assay relates to human childhood brain tumor cell lines (PFSK-1). The experiment in a line: Growth inhibitory activity against PFSK-1 cells (WST-8, Cell Counting Kit-8). The class given is cell-based. As to conditions: Homo sapiens, 72 h, 3 days incubation with test compound, WST-8 OD 450/630 nm, read-out: IC50 (concentration inhibiting 50% of the cell growth). As for the experimental part: The growth inhibitory activity against human childhood brain tumor cell lines (PFSK-1) was measured with WST-8 reagent [2-(2-methoxy-4-nitrophenyl)-3-(4-nitrophenyl)-5-(2,4-disulfophenyl)-2H-tetrazolium monosodium salt, Cell Counting Kit-8™], according to the method described in Tominaga, H. et al., Anal. Commun., 1999, 36, 47-50. Briefly, PFSK-1 was seeded in 96-well microplate at 100 μL/well with Roswell Park Memorial Institute (RPMI) 1640 medium containing 10% fetal bovine serum (FBS), and the cells were incubated in the presence of 5% carbon dioxide (CO2) at 37° C. for 24 hours. 50 μL of each test compound diluted with the medium was added to each well, and then the cells were incubated further for 3 days. After the incubation, 15 μL of Cell Counting Kit-8™ was added to each well, and the cells were incubated for one and half hours. Then, optical density (OD) values at measurement wavelength 450 nm and reference wavelength 630 nm were measured and the difference thereof was calculated. From the calculated difference, the OD value difference (at measurement wavelength 450 nm and reference wavelength 630 nm) of the control well which includes no cell was subtracted to afford cell-growth activity in each well.
The cell growth inhibitory activity of each test compound was calculated by comparing the cell-growth activity with each test compound to the cell-growth activity without any test compound (control), and each IC50 (nM) which is the concentration inhibiting 50% of the cell growth was calculated.
(In general: Tetrazolium assays rely on reduction of a dye to a coloured formazan, in cell work by metabolically active cells.)

Structures are written as SMILES.

On to `Cc1cc(C2=NNC(=O)CC2C)cc(C)c1OCC1(O)CC1` (stereo not shown) [Example 43, 6-{4-[(1-Hydroxycyclopropyl)methoxy]-3,5-dimethylphenyl}-5-methyl-4,5-dihydro-2H-pyridazin-3-one], for which the IC50 turned out to be 4.3 nM.
Then `Cc1cc(C2=NNC(=O)CC2C)cc(Cl)c1OCC1(O)CC1` (stereo not shown) [Example 44, 6-{3-chloro-4-[(1-hydroxycyclopropyl)methoxy]-5-methylphenyl}-5-methyl-4,5-dihydro-2H-pyridazin-3-one], with 1 nM; and `Cc1cc(C2=NNC(=O)CC2C)cc(F)c1OCC1(O)CC1` (stereo not shown) [Example 45, 6-{3-Fluoro-4-[(1-hydroxycyclopropyl)methoxy]-5-methylphenyl}-5-methyl-4,5-dihydro-2H-pyridazin-3-one], with 7.2 nM; and `Cc1c(OCC2(O)CC2)ccc(C2=NNC(=O)CC2C)c1F` (stereo not shown) [Example 46, 6-{2-Fluoro-4-[(1-hydroxycyclopropyl)methoxy]-3-methylphenyl}-5-methyl-4,5-dihydro-2H-pyridazin-3-one], with 3.9 nM.
Then `CC1CC(=O)NN=C1c1ccc(OCC2(O)CC2)c(Cl)c1F` (stereo not shown) [Example 47, 6-{3-chloro-2-fluoro-4-[(1-hydroxycyclopropyl)methoxy]phenyl}-5-methyl-4,5-dihydro-2H-pyridazin-3-one], with 2.4 nM; and `CC(O)COc1ccc(C2=NNC(=O)CC2C)c(F)c1Br` (stereo not shown) [Example 48, 6-[3-bromo-2-fluoro-4-(2-hydroxypropoxy)phenyl]-5-methyl-4,5-dihydro-2H-pyridazin-3-one], with 0.9 nM; and `CC(O)COc1ccc(C2=NNC(=O)CC2C)c(F)c1F` (stereo not shown) [Example 49, 6-[2,3-Difluoro-4-(2-hydroxypropoxy)phenyl]-5-methyl-4,5-dihydro-2H-pyridazin-3-one], with 2.8 nM.
`CC(O)COc1c(F)cc(C2=NNC(=O)CC2C)cc1Br` (stereo not shown) [Example 50, 6-[3-Bromo-5-fluoro-4-(2-hydroxypropoxy)phenyl]-5-methyl-4,5-dihydro-2H-pyridazin-3-one]: the IC50 amounted to 2.9 nM.
Then `Cc1cc(C2=NNC(=O)CC2C)cc(C)c1OCC(C)O` (stereo not shown) [Example 51, 6-[4-(2-Hydroxypropoxy)-3,5-dimethylphenyl]-5-methyl-4,5-dihydro-2H-pyridazin-3-one], with 5.5 nM; and `CC(O)COc1c(F)cc(C2=NNC(=O)CC2C)cc1Cl` (stereo not shown) [Example 52, 6-[3-Chloro-5-fluoro-4-(2-hydroxypropoxy)phenyl]-5-methyl-4,5-dihydro-2H-pyridazin-3-one], with 3.8 nM.
Consider `CC(O)COc1c(Cl)cc(C2=NNC(=O)CC2C)cc1Cl` (stereo not shown) [Example 53, 6-[3,5-dichloro-4-(2-hydroxypropoxy)phenyl]-5-methyl-4,5-dihydro-2H-pyridazin-3-one], for which the IC50 was 1.9 nM.
With `CC(O)COc1ccc(C2=NNC(=O)CC2C)c(F)c1Cl` (stereo not shown) [Example 54, 6-[3-chloro-2-fluoro-4-(2-hydroxypropoxy)phenyl]-5-methyl-4,5-dihydro-2H-pyridazin-3-one], the IC50 was 0.5 nM.
As to `Cc1cc(C2=NNC(=O)CC2C)cc(Cl)c1OCC(C)O` (stereo not shown) [Example 55, 6-[3-chloro-4-(2-hydroxypropoxy)-5-methylphenyl]-5-methyl-4,5-dihydro-2H-pyridazin-3-one], the IC50 came out at 1.9 nM.
Then `Cc1cc(C2=NNC(=O)CC2C)cc(F)c1OCC(C)O` (stereo not shown) [Example 56, 6-[3-Fluoro-4-(2-hydroxypropoxy)-5-methylphenyl]-5-methyl-4,5-dihydro-2H-pyridazin-3-one], with 7.6 nM; and `CC(O)COc1c(Cl)cc(C2=NNC(=O)CC2C)cc1Br` (stereo not shown) [Example 57, 6-[3-bromo-5-chloro-4-(2-hydroxypropoxy)phenyl]-5-methyl-4,5-dihydro-2H-pyridazin-3-one], with below 1 nM; and `Cc1c(OCC(C)O)ccc(C2=NNC(=O)CC2C)c1F` (stereo not shown) [Example 58, 6-[2-Fluoro-4-(2-hydroxypropoxy)-3-methylphenyl]-5-methyl-4,5-dihydro-2H-pyridazin-3-one], with 2.8 nM.
